Experiment [1] concerns the target PIK3CD (Human) (UniProt O00329). Nature of the experiment: Assessment of PIK3CD Kinase Activity.
Experiment [2] deals with PIK3CG (human) (UniProt P48736). Kind of experiment: Assessment of PIK3CG Kinase Activity.
The target of experiment [3] is PIK3CA (human) (UniProt P42336). Nature of the experiment: Assessment of PIK3CA Kinase Activity.
Experiment [4] deals with PIK3CB (Human) (UniProt P42338). Kind of experiment: Assessment of PIK3CB Kinase Activity.

Some results are limits rather than exact numbers.

Chain of PIK3CG (human) (P48736 whole entry, looked up): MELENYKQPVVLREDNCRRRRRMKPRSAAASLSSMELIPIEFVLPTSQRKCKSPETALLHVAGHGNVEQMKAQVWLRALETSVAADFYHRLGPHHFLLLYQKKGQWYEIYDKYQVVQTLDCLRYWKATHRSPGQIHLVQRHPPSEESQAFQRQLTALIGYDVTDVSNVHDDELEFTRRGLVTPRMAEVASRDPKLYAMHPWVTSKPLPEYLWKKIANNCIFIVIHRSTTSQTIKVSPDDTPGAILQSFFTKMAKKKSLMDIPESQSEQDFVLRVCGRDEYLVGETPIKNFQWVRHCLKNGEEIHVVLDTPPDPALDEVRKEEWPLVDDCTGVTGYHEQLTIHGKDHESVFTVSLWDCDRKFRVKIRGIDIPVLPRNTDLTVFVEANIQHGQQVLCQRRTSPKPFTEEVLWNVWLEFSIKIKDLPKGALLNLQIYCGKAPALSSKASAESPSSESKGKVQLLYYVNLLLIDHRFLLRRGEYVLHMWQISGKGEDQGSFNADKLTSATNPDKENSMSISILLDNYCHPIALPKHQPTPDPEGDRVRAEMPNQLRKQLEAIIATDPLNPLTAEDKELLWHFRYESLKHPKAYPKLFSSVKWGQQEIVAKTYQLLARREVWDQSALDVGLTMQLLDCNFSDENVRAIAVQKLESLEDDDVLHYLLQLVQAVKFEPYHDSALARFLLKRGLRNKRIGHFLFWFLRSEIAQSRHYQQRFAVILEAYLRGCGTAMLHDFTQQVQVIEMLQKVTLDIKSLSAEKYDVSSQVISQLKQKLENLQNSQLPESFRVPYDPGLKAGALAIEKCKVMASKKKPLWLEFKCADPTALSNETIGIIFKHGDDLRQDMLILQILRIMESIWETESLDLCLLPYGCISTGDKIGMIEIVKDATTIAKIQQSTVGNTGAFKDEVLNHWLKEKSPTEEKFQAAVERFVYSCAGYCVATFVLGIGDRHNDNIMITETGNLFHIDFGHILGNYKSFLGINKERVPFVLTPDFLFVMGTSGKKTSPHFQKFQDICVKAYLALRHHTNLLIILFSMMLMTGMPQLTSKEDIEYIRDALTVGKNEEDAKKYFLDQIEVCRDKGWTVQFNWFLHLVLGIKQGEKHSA
Chain of PIK3CA (human) (P42336 whole entry, looked up): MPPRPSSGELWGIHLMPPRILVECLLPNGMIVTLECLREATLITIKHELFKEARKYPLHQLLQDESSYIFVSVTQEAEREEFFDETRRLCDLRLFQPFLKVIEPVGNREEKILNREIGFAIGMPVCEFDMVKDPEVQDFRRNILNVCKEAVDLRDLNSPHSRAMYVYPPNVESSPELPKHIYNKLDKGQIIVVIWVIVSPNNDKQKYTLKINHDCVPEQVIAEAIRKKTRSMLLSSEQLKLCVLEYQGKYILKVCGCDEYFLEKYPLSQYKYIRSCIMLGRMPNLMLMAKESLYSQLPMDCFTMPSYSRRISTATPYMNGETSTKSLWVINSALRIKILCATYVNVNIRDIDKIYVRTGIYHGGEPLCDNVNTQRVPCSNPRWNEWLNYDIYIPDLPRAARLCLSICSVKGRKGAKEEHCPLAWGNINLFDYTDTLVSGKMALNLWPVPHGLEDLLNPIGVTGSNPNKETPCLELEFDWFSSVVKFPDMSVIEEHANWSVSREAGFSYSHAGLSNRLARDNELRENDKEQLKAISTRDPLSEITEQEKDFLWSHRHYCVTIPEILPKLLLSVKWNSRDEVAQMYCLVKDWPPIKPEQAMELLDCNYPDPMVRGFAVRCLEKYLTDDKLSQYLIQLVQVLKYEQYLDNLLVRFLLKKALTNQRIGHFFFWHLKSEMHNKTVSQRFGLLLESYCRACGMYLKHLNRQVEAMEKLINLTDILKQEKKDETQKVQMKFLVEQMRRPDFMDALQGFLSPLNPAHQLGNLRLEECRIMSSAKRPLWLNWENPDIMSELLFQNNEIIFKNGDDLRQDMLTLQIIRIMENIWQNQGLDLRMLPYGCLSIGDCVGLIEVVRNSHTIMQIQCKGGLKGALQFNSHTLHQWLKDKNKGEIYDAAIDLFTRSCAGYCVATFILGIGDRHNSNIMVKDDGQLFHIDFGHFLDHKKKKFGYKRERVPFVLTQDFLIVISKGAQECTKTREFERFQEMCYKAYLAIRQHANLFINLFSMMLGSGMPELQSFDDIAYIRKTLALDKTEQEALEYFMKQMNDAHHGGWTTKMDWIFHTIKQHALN
Chain of PIK3CD (Human) (O00329 whole entry, looked up): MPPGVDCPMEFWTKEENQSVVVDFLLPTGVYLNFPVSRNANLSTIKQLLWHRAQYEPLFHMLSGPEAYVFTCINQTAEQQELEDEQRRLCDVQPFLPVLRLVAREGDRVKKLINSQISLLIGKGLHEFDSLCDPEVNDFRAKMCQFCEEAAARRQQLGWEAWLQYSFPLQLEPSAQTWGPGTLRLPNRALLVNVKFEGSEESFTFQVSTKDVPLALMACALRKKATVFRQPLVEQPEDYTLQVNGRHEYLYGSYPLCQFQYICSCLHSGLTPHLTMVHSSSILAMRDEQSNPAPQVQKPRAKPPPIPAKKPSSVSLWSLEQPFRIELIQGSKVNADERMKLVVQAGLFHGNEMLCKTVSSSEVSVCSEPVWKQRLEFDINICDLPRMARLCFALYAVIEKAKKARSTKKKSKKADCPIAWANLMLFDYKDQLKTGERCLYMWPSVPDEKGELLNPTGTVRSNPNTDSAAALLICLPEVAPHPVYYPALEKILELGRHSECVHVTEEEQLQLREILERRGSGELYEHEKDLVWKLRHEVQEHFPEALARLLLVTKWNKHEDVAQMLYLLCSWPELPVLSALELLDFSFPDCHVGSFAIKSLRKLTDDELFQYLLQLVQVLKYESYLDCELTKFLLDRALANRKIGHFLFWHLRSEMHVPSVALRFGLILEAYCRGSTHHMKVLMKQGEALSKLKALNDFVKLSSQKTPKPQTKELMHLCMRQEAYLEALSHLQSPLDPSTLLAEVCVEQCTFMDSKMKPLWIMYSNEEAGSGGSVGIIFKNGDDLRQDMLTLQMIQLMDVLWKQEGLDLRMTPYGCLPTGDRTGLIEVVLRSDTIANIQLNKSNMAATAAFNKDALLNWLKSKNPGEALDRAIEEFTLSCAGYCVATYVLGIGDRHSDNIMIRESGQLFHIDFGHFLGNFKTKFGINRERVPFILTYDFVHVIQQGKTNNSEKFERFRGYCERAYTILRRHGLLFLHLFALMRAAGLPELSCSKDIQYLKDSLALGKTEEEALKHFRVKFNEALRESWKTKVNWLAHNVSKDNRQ
Chain of PIK3CB (Human) (P42338 whole entry, looked up): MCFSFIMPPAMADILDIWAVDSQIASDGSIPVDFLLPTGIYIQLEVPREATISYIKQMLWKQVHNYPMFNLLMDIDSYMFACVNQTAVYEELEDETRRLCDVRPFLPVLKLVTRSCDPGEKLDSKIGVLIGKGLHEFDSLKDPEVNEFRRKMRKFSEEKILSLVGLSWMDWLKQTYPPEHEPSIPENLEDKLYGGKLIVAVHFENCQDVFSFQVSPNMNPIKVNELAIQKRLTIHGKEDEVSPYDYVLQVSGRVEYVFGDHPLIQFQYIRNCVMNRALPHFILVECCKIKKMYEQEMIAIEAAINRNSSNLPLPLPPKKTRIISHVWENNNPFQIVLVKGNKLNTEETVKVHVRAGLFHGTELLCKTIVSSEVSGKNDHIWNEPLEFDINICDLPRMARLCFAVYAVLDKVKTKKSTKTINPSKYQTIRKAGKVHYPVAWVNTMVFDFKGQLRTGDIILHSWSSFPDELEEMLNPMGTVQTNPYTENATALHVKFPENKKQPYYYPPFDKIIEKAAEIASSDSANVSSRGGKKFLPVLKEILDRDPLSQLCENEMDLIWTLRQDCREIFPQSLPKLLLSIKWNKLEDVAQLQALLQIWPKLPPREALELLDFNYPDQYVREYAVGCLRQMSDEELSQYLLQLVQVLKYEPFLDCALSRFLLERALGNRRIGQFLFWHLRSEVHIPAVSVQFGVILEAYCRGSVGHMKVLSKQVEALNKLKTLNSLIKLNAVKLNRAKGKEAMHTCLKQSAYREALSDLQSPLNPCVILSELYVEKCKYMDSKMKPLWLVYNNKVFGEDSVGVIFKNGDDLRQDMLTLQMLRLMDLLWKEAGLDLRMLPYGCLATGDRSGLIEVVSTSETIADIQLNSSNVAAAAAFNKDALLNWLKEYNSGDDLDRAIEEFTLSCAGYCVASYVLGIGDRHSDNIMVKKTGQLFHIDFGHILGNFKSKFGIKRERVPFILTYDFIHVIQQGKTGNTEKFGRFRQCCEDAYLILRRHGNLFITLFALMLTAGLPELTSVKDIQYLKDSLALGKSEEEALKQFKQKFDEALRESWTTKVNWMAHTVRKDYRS

For `C[C@H](Nc1nc(N)ncc1C#N)c1cc2cccc(Cl)c2c(=O)n1-c1c(F)cc(F)cc1F`, the values for the IC50 in experiment [1], in experiment [2] and in experiment [3] were 100 to 1000 nM, below 100 nM and above 10000 nM, respectively.

`C[C@H](Nc1nc(N)ncc1C#N)c1cc2cccc(-c3ccc(S(C)(=O)=O)cc3)c2c(=O)n1-c1ccccc1`: the half-inhibitory concentration (IC50) was below 100 nM in experiment [1], below 100 nM in experiment [2] and above 10000 nM in experiment [4].

Regarding `Cc1ccc(-c2cccc3cc([C@H](C)Nc4nc(N)ncc4C#N)n(-c4ccccc4)c(=O)c23)cn1`, the IC50 in experiment [1] was below 100 nM; in experiment [2] it was below 100 nM; in experiment [4], above 10000 nM.

For the compound `C[C@H](Nc1nc(N)ncc1C#N)c1cc2cccc(-c3cncc(N(C)S(C)(=O)=O)c3)c2c(=O)n1-c1ccccc1`, the concentration for half-maximal inhibition (IC50) in experiment [1] is below 100 nM; in experiment [2] it was below 100 nM; in experiment [3], 100 to 1000 nM.

For the compound `Cc1cccc(-c2cccc3cc([C@H](C)Nc4nc(N)ncc4C#N)n(-c4ccccc4)c(=O)c23)c1`, the results for the IC50 in experiment [1], in experiment [2] and in experiment [3] were below 100 nM, below 100 nM and 100 to 1000 nM, respectively.

On to `C[C@H](Nc1nc(N)ncc1C(=O)N(C)C)c1cc2cccc(-c3cnn(C)c3)c2c(=O)n1-c1ccccc1`, for which the IC50 is below 100 nM in experiment [1], below 100 nM in experiment [2] and above 10000 nM in experiment [4].

For `C[C@H](Nc1nc(N)ncc1C#N)c1cc2cccc(-c3cccc(NS(=O)(=O)N(C)C)c3)c2c(=O)n1-c1ccccc1`, the IC50 was below 100 nM in experiment [1], 100 to 1000 nM in experiment [2] and above 10000 nM in experiment [4].

With `C[C@H](Nc1nc(N)ncc1C#N)c1cc2cccc(-c3ccnnc3)c2c(=O)n1-c1ccccc1`, the 50% inhibitory concentration (IC50) in experiment [1] was below 100 nM; in experiment [2], 100 to 1000 nM; in experiment [4], above 10000 nM.

As for `COc1cc(-c2cccc3cc([C@H](C)Nc4nc(N)ncc4C#N)n(-c4ccccc4)c(=O)c23)cnc1OC`, the IC50 in experiment [1], in experiment [2] and in experiment [3] was below 100 nM each time.

In the case of `C[C@H](Nc1nc(N)ncc1-c1cscn1)c1cc2cccc(Cl)c2c(=O)n1-c1ccccc1`, the 50% inhibitory concentration (IC50) in experiment [1] was below 100 nM; in experiment [2], below 100 nM; in experiment [4], 100 to 1000 nM.

As to `COc1cc(-c2cccc3cc([C@H](C)Nc4nc(N)ncc4-c4cccnc4)n(-c4ccccc4)c(=O)c23)ccn1`, the IC50 was 100 to 1000 nM in experiment [1], 100 to 1000 nM in experiment [2] and above 10000 nM in experiment [4].

As to `C[C@H](Nc1nc(N)ncc1-c1ccncc1)c1cc2cccc(Cl)c2c(=O)n1-c1ccccc1`, the figures for the half-maximal inhibitory concentration (IC50) in experiment [1], in experiment [2] and in experiment [3] were 100 to 1000 nM, below 100 nM and above 10000 nM, respectively.

As for `CC#Cc1cccc2cc([C@H](C)Nc3nc(N)ncc3C#N)n(-c3ccccc3)c(=O)c12`, the half-inhibitory concentration (IC50) in experiment [1] was below 100 nM; in experiment [2], below 100 nM; in experiment [4] it was 100 to 1000 nM.

On to `C[C@H](Nc1nc(N)ncc1C#N)c1cc2cccc(O)c2c(=O)n1-c1ccccc1`, for which the results for the IC50 in experiment [1], in experiment [2] and in experiment [3] were below 100 nM, below 100 nM and above 10000 nM, respectively.

As for `C[C@H](Nc1nc(N)ncc1C#N)c1cc2cccc(-c3ccc(F)cc3)c2c(=O)n1-c1ccccc1`, the IC50 is below 100 nM in experiment [1], below 100 nM in experiment [2] and 100 to 1000 nM in experiment [3].

As for `C[C@H](Nc1nc(N)ncc1C#N)c1cc2cccc(Cl)c2c(=O)n1-c1ccc(OC(F)(F)F)cc1`, the results for the half-maximal inhibitory concentration (IC50) in experiment [1], in experiment [2] and in experiment [3] were 100 to 1000 nM, 100 to 1000 nM and above 10000 nM, respectively.

On to `COc1cncc(-c2cccc3cc([C@H](C)Nc4nc(N)ncc4C#N)n(-c4cccc(F)c4)c(=O)c23)c1`, for which the IC50 in experiment [1] was below 100 nM; in experiment [2], below 100 nM; in experiment [3] it was 100 to 1000 nM.

On to `C[C@H](Nc1nc(N)ncc1-c1ccc(O)cc1)c1cc2cccc(Cl)c2c(=O)n1-c1ccccc1`, for which the concentration for half-maximal inhibition (IC50) in experiment [1] is 100 to 1000 nM; in experiment [2], below 100 nM; in experiment [3], above 10000 nM.

Take `C[C@H](Nc1nc(N)ncc1C#N)c1cc2cccc(-c3ccc(=O)n(C4CCCC4)c3)c2c(=O)n1-c1ccccc1`: the IC50 in experiment [1] was below 100 nM; in experiment [2] it was below 100 nM; in experiment [3], 100 to 1000 nM.

As for `C[C@H](Nc1nc(N)ncc1-c1cnn(C)c1)c1cc2cccc(Cl)c2c(=O)n1-c1ccccc1`, the IC50 is 100 to 1000 nM in experiment [1], below 100 nM in experiment [2] and above 10000 nM in experiment [3].

As to `CC(C)Oc1cncc(-c2cccc3cc([C@H](C)Nc4nc(N)ncc4C#N)n(-c4ccccc4)c(=O)c23)c1`, the half-maximal inhibitory concentration (IC50) in experiment [1], in experiment [2] and in experiment [3] was below 100 nM each time.

Regarding `C[C@H](Nc1nc(N)ncc1C#N)c1cc2cccc(Cl)c2c(=O)n1-c1cccc(F)c1F`, the concentration for half-maximal inhibition (IC50) is below 100 nM in experiment [1], below 100 nM in experiment [2] and above 10000 nM in experiment [3].

Take `Cc1cccc2cc([C@H](C)Nc3nc(N)ncc3C(F)(F)F)n(-c3cccc(F)c3)c(=O)c12`: the values for the IC50 in experiment [1], in experiment [2] and in experiment [3] were below 100 nM, below 100 nM and above 10000 nM, respectively.

In experiment [4], `COc1cc(-c2cccc3cc([C@H](C)N)n(-c4ccccc4)c(=O)c23)cnc1C` gave a half-maximal inhibitory concentration (IC50) of 100 to 1000 nM.

Source of the values: the Kinase Knowledgebase extract (Sharma et al. 2016).
